The test system of one data set is IL-6. Nature of the data set: IL-6 assay (ELISA) in Ad5-wt-ER infected HAECT-1 cells. Format: cell-based, human. The following applies: for ER/IL-6 % Eff: relative to the maximal inhibition observed with E2; for IC50: IL-1 treated. Here is the method: (§1) After four hours, cells were washed with EBM-BSA and incubated overnight in the same medium. […] After two hours, cells were washed and incubated at 34° C. for 1 hour. Cells were then washed, trypsinized, counted and resuspended in 95% FBS/5% dimethylsulfoxide at a concentration of 4×10^6 cells/ml, frozen as 1 or 5 ml aliquots in cryo-vials and stored at −150° C. Control (no ER infection) cells were processed as above without Ad5-wt-hER virus infection. […] Cells were subsequently washed with 300 l of Dulbecco's phosphate buffered saline and lysed in 50 l of Cell Culture Lysis Reagent (Promega). Luciferase was determined on a Wallac Victor^2 Luminometer (Gaithersburg, Md.) using 10 l of lysate and mixing with 100 l of Promega Luciferase Assay reagent. Creatine kinase was determined from the rate of increase in A340 following addition of 100 l of CK assay reagent (Sigma, cat. […] For IC50 and EC50 calculations, mean IL-6, luciferase or CK values versus log10 of the compound concentration were fitted to a four parameter logistic equation. The IC50/EC50 value, ‘Hill slope’, upper and lower limits of the curve were iteratively estimated.
On the technique in general: An ELISA detects its analyte on a solid surface through an enzyme-linked reagent.

The test system of the next data set is creatine kinase. Nature of the data set: Creatine kinase assay in Ad5-wt-ER infected HAECT-1 cells. Format: cell-based, human. Particulars: for EC50: Homo sapiens, HAECT1, N/O = activity not observed at doses tested, read-out: ER/CK EC50; for ER/CK % Eff*: relative to the maximal stimulation observed with E2; for ER/CK EC50: N/O = activity not observed at doses tested. The protocol: as §1

A further data set relates to NF-κB. Nature of the data set: NFκB-luciferase assay in Ad5-wt-ER infected HAECT-1 cells. Particulars: for IC50: IL-1 treated, read-out: ER/NF-KB-luc IC50; for ER/NF-KB-luc % Eff*: relative to the maximal inhibition observed with E2. Format: cell-based, human. The protocol: T-175 flasks of 100% confluent HAECT-1 cells (immortalized human aortic endothelial cells) were washed with 8 ml of HBSS (HEPES buffered saline solution) and infected for four hours with 6 ml of a 1:10 dilution of Ad5-wt-hER virus (an adenovirus transfection vector that mediates CMV promoter driven expression of human ER) in phenol red free Endothelial Cell Basal medium (Clonetics, San Diego Calif., Catalog # CC-3129) containing 0.25% bovine serum albumin (EBM-BSA). After four hours, cells were washed with EBM-BSA and incubated overnight in the same medium. Following overnight incubation, cells were washed with EBM-BSA and infected for 2 hours with 6 ml of a 1:10 dilution of Ad5-3×(NF B).Luc virus (Adenovirus luciferase expression vector driven by 3 repeats of the MHC NF b site 5′ to the thymidine kinase promoter) in EBM-BSA. After two hours, cells were washed and incubated at 34° C. for 1 hour. Cells were then washed, trypsinized, counted and resuspended in 95% FBS/5% dimethylsulfoxide at a concentration of 4×10^6 cells/ml, frozen as 1 or 5 ml aliquots in cryo-vials and stored at −150° C. Control (no ER infection) cells were processed as above without Ad5-wt-hER virus infection.
ER infected HAECT-1 cells or control cells were thawed, diluted 42× in warm EBM-BSA, plated into 96-well plates at 0.1 ml/well and incubated for 4 h at 34° C. Test compounds were added to the cells as 2× stocks in EBM-BSA containing 2 ng/ml IL-1 (R&D Systems) and plates were returned to the incubator (34° C.). After 15-20 h, 100 l aliquots of media were removed from the cells and assayed for IL-6 content using a BioSource human IL-6 ELISA Kit. Cells were subsequently washed with 300 l of Dulbecco's phosphate buffered saline and lysed in 50 l of Cell Culture Lysis Reagent (Promega). Luciferase was determined on a Wallac Victor^2 Luminometer (Gaithersburg, Md.) using 10 l of lysate and mixing with 100 l of Promega Luciferase Assay reagent. Creatine kinase was determined from the rate of increase in A340 following addition of 100 l of CK assay reagent (Sigma, cat. No 47-10) to the remainder of the cell lysate.
For IC50 and EC50 calculations, mean IL-6, luciferase or CK values versus log10 of the compound concentration were fitted to a four parameter logistic equation. The IC50/EC50 value, ‘Hill slope’, upper and lower limits of the curve were iteratively estimated.

[1] abbreviates: Ad5-wt-ER infected HAECT-1 cells.
The mark [2] stands for this setting: Homo sapiens, HAECT1, Ad5-wt-ER infected HAECT-1 cells.

By melting point is commonly meant the temperature of the solid-liquid transition. In the case of `CCc1cc2c(s1)-c1ccccc1C(CC)N2S(=O)(=O)c1ccc(O)cc1` (stereo not drawn), the melting point was 119 to 122 °C.

`CC1c2ccccc2-c2sccc2N1S(=O)(=O)c1ccc(O)cc1` (stereo not drawn) [Example 4, 4-[(5-Methylthieno[3,2-c]isoquinolin-4(5H)-yl)sulfonyl]phenol] gave a melting point of 163 to 165 °C. In addition, the “ER/IL-6 % Eff” value in the data set on IL-6 (setting [1]) is on record as 172%. In the data set on IL-6 (setting [2]), the IC50 was 66.8 nM. In addition, in the data set with creatine kinase, the EC50 came to 100 nM and the “ER/CK % Eff*” value worked out at 42%.

`CCC1c2ccccc2-c2sccc2N1S(=O)(=O)c1ccc(O)cc1` (stereo not drawn) [Example 5, 4-[(5-Ethylthieno[3,2-c]isoquinolin-4(5H)-yl)sulfonyl]phenol] had a melting point of 169 to 171 °C. Besides, the “ER/IL-6 % Eff” value with IL-6 (setting [1]) is reported as 174%. The IC50 with IL-6 (setting [2]) was 21.3 nM. The “ER/CK EC50” value with creatine kinase is listed as “N/O”.

In the case of `CC1c2ccccc2-c2sc(Br)cc2N1S(=O)(=O)c1ccc(O)cc1` (stereo not drawn) [Example 6, 4-[(2-Bromo-5-methylthieno[3,2-c]isoquinolin-4(5H)-yl)sulfonyl]phenol], the melting point lay within 209 to 211 °C. Moreover, the “ER/IL-6 % Eff” value with IL-6 (setting [1]) came out at 162%. Moreover, the IC50 in the data set with IL-6 (setting [2]) was 28.2 nM. The “ER/CK EC50” value with creatine kinase is recorded as “N/O”.

Take `C[C@@H]1c2ccccc2-c2sc(Br)cc2N1S(=O)(=O)c1ccc(O)cc1` [Example 7, 4-{[(5R)-2-bromo-5-methylthieno[3,2-c]isoquinolin-4-(5H)-yl]sulfonyl}phenol]: in the data set with NF-κB, the IC50 was 1450 nM and the “ER/NF-KB-luc % Eff*” value is recorded as 84%. Also, in the data set with IL-6 (setting [1]), the IC50 was found to be 5820 nM and the “ER/IL-6 % Eff” value turned out to be 161%. Besides, in the data set with creatine kinase, the “ER/CK EC50” value was “N/O”.

As for `C[C@H]1c2ccccc2-c2sc(Br)cc2N1S(=O)(=O)c1ccc(O)cc1` [Example 8, 4-{[(5S)-2-bromo-5-methylthieno[3,2-c]isoquinolin-4-(5H)-yl]sulfonyl}phenol], in the data set with NF-κB, the IC50 was determined as 19 nM and the “ER/NF-KB-luc % Eff*” value was determined as 92%. For the same compound, in the data set on IL-6 (setting [1]), the IC50 is 8.9 nM and the “ER/IL-6 % Eff” value is recorded as 164%. For the same compound, in the data set on creatine kinase, the “ER/CK EC50” value was “N/O”.

Take `CCC1c2ccccc2-c2sc(Br)cc2N1S(=O)(=O)c1ccc(O)cc1` (stereo not drawn) [Example 9, 4-[(2-Bromo-5-ethylthieno[3,2-c]isoquinolin-4(5H)-yl)sulfonyl]phenol]: the melting point was 183 to 185 °C. Also, the “ER/IL-6 % Eff” value in the data set on IL-6 (setting [1]) amounted to 194%. In the data set with IL-6 (setting [2]), the IC50 was 7.7 nM. Further, in the data set with creatine kinase, the EC50 was 47 nM and the “ER/CK % Eff*” value stood at 33%.

As to `CCC1c2ccccc2-c2sc(-c3ccsc3)cc2N1S(=O)(=O)c1ccc(O)cc1` (stereo not drawn) [Example 10, 4-[(5-Ethyl-2-thien-3-ylthieno[3,2-c]isoquinolin-4(5H)-yl)sulfonyl]phenol], the melting point is 195 to 196 °C.

For `CCC1c2ccccc2-c2sc(-c3ccccc3)cc2N1S(=O)(=O)c1ccc(O)cc1` (stereo not drawn) [Example 11, 4-[(5-Ethyl-2-phenylthieno[3,2-c]isoquinolin-4(5H)-yl)sulfonyl]phenol], the “ER/IL-6 % Eff” value with IL-6 (setting [1]) worked out at 132%. This compound also displayed an IC50 in the data set with IL-6 (setting [2]) of 24.6 nM. In the data set with creatine kinase, the EC50 was found to be 15 nM and the “ER/CK % Eff*” value stood at 63%.

Regarding `CC1c2ccccc2-c2sc(Br)cc2N1S(=O)(=O)c1ccc(O)c(Br)c1` (stereo not drawn) [Example 12, 2-Bromo-4-[(2-bromo-5-methylthieno[3,2-c]isoquinolin-4(5H)-yl)sulfonyl]phenol], in the data set on IL-6 (setting [1]), the “ER/IL-6 % Eff” value is on record as 197%. Also, the IC50 in the data set on IL-6 (setting [2]) came out at 1480 nM. Also, in the data set with creatine kinase, the EC50 came out at 1540 nM and the “ER/CK % Eff*” value is 35%.

In the case of `C[C@]12CC[C@@H]3c4ccc(O)cc4CC[C@H]3[C@@H]1CC[C@@H]2O` [Example E2, 17β-estradiol, reference compound], in the data set with IL-6 (setting [1]), the IC50 stood at 1.7 nM and the “ER/IL-6 % Eff” value was determined as 100%. In the data set on creatine kinase, the EC50 was determined as 5.8 nM and the “ER/CK % Eff*” value was 100%.

The values above are taken from patent US7696221B2, “Thienoisoquinoline-phenylsulfonamides and their use as ER-NFκB inhibitors” (Wyeth LLC, priority 2004, dated 2010).
